According to patent US20180327367A1, “MACROCYCLIC BROAD SPECTRUM ANTIBIOTICS” (priority 2015, published 2018):
≈ marks a conversion by molar mass, not a printed value. Like-named read-outs stand apart in the source and are kept apart here.

Legend:
Format in all cases: cell-based
[1] = test system: Methicillin Resistant Staphylococcus aureus strain USA 300, NRS384; experiment: Minimum inhibitory concentration, broth micro-dilution (CLSI), S. aureus; details: Staphylococcus aureus, MRSA / NRS 384 / USA300, 22 h, 35° C., 22 hours
How it was run: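 Ten-point 2-fold series began at 4 μg/mL in protocol 2 and 0.5 μg/mL in protocol 3, in cation-adjusted MHB plus 0.002% Tween-80. Bacteria added to OD600 0.0005 final and incubated at 35° C for 22 hours per CLSI microdilution.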

[2] = test system: Escherichia coli ATCC 25922; experiment: Minimum inhibitory concentration, broth micro-dilution (CLSI), E. coli; details: Escherichia coli, ATCC25922, 22 h, 35° C., 22 hours
[3] = test system: Escherichia coli MC4100 harboring the IMP4213 (E. coli IMP); experiment: microbe, parasite or virus in culture; details: Escherichia coli, 22 h, read-out: MIC (μg/mL) E. coli IMP, E. coli MC4100 IMP4213, increased outer-membrane permeability; 35° C., 22 hours
How it was run: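 Colonies grown 20 hours at 35° C were suspended in cation-adjusted Mueller Hinton Broth with 0.002% Tween-80. Cells were then added to 2-fold compound dilutions starting at 4 or 0.5 μg/mL, at OD600 0.0005.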

[4] = read-out: MIC (μg/mL) S. aureus, MRSA USA 300 NRS384
[5] = read-out: MIC (μg/mL) E. coli, E. coli ATCC 25922
[6] = MRSA USA 300 NRS384, read-out: MIC (μg/mL) S. aureus
[7] = E. coli ATCC 25922, read-out: MIC (μg/mL) E. coli

Structure (SMILES) | MIC [1, 4] | MIC [2, 5] | MIC [3] | MIC [1, 6] | MIC [2, 7]
CCCCCCc1ccc(C(=O)N[C@@H](CCNC=N)C(=O)N(C)[C@@H]2C(=O)N[C@@H](C)C(=O)N[C@H](C(=O)NCC#N)Cc3ccc(O)c(c3)-c3cc2ccc3O)c(C)c1 [Compound 467] | 1 µg/mL (≈ 1.28 µM) | > 64 µg/mL | 1 µg/mL (≈ 1.28 µM) |  | 
CCCCCCCCCCCCCC(=O)N(C)[C@@H]1C(=O)N[C@@H](C)C(=O)N[C@H](C(=O)N[C@@H](C)C#N)Cc2ccc(OCCN)c(c2)-c2cc1ccc2OCCN [Compound 474] |  |  | 0.19 µg/mL (≈ 0.249 µM) | 2 µg/mL (≈ 2.62 µM) | 4 µg/mL (≈ 5.25 µM)
CCCCCCc1ccc(C(=O)N[C@@H](Cc2ccncc2)C(=O)N(C)[C@@H]2C(=O)N[C@@H](C)C(=O)N[C@H](C(=O)NCC#N)Cc3ccc(OCCN)c(c3)-c3cc2ccc3OCCN)c(C)c1 [Compound 479] |  |  | 0.5 µg/mL (≈ 0.563 µM) | 0.25 µg/mL (≈ 0.282 µM) | 32 µg/mL (≈ 36 µM)
CCCCCCc1ccc(C(=O)N[C@@H](CCNC(=N)N)C(=O)N(C)[C@@H]2C(=O)N[C@@H](C)C(=O)N[C@H](C(=O)NCC#N)Cc3ccc(OCCN)c(c3)-c3cc2ccc3OCCN)c(C)c1 [Compound 485] |  |  | 0.031 µg/mL (≈ 0.0351 µM) | 0.063 µg/mL (≈ 0.0714 µM) | 2 µg/mL (≈ 2.27 µM)
CCCCCCCCc1ccc2c(=O)n([C@@H](CCN)C(=O)N(C)[C@@H]3C(=O)N[C@@H](C)C(=O)N[C@H](C(=O)NCC#N)Cc4ccc(OCCN)c(c4)-c4cc3ccc4OCCN)cnc2c1 [Compound 486] | 0.094 µg/mL (≈ 0.107 µM) | 3 µg/mL (≈ 3.41 µM) | 0.13 µg/mL (≈ 0.148 µM) |  | 
CCCCCCCCc1ccc2c(=O)n([C@@H](CCN)C(=O)N(C)[C@@H]3C(=O)N[C@@H](C)C(=O)N[C@H](C(=O)NCC#N)Cc4ccc(OCCN)c(c4)-c4cc3ccc4OCCN)c(C)nc2c1 [Compound 487] |  |  | 0.25 µg/mL (≈ 0.28 µM) | 0.5 µg/mL (≈ 0.56 µM) | 8 µg/mL (≈ 8.96 µM)
CCCCCCCCc1ccc2c(c1)CN([C@@H](CCN)C(=O)N(C)[C@@H]1C(=O)N[C@@H](C)C(=O)N[C@H](C(=O)NCC#N)Cc3ccc(OCCN)c(c3)-c3cc1ccc3OCCN)C2=O [Compound 488] | 0.094 µg/mL (≈ 0.109 µM) | 4 µg/mL (≈ 4.62 µM) | 0.13 µg/mL (≈ 0.15 µM) |  | 
CCCCCCCCc1ccc2c(c1)C(C)N([C@@H](CCN)C(=O)N(C)[C@@H]1C(=O)N[C@@H](C)C(=O)N[C@H](C(=O)NCC#N)Cc3ccc(OCCN)c(c3)-c3cc1ccc3OCCN)C2=O (stereo partly drawn) [Compound 489] |  |  | 0.25 µg/mL (≈ 0.284 µM) | 0.19 µg/mL (≈ 0.216 µM) | 8 µg/mL (≈ 9.09 µM)
C[C@@H]1NC(=O)[C@@H](N(C)C(=O)[C@H](CCN)NC(=O)CCCc2ccc(F)cc2)c2ccc(OCCN)c(c2)-c2cc(ccc2OCCN)C[C@@H](C(=O)NCC#N)NC1=O [Compound 493] |  |  | 2 µg/mL (≈ 2.49 µM) | 3 µg/mL (≈ 3.74 µM) | > 64 µg/mL
CCCCCCc1ccc(C(=O)N[C@@H]2CN[C@H](C(=O)N(C)[C@@H]3C(=O)N[C@@H](C)C(=O)N[C@H](C(=O)NCC#N)Cc4ccc(OCCN)c(c4)-c4cc3ccc4OCCN)C2)c(C)c1 [Compound 498] |  |  | 1 µg/mL (≈ 1.17 µM) | 0.5 µg/mL (≈ 0.587 µM) | 16 µg/mL (≈ 18.8 µM)
CCCCCCCc1ccc(C(=O)N[C@@H](CCN)C(=O)N(C)[C@@H]2C(=O)N[C@@H](C)C(=O)N[C@H](C(=O)NCC#N)Cc3ccc(OCCNC(=O)CN)c(c3)-c3cc2ccc3OCCNC(=O)CN)c(C)c1 [Compound 499] |  |  | 0.023 µg/mL (≈ 0.0238 µM) | 0.063 µg/mL (≈ 0.0651 µM) | 0.5 µg/mL (≈ 0.516 µM)
CCCCCCCCc1ccc(C(=O)N[C@@H](CCC(=O)NC)C(=O)N(C)[C@@H]2C(=O)N[C@@H](C)C(=O)N[C@H](C(=O)NCC#N)Cc3ccc(OCCN)c(c3)-c3cc2ccc3OCCN)c(C)c1 [Compound 501] |  |  | > 0.13 µg/mL | 0.38 µg/mL (≈ 0.418 µM) | 16 µg/mL (≈ 17.6 µM)
Cc1nc(-c2ccc(CC(C)C)cc2)ccc1C(=O)N[C@@H](CCN)C(=O)N(C)[C@@H]1C(=O)N[C@@H](C)C(=O)N[C@H](C(=O)NCC#N)Cc2ccc(O)c(c2)-c2cc1ccc2OCCN [Compound 502] |  |  | 0.003 µg/mL (≈ 0.00355 µM) | 0.063 µg/mL (≈ 0.0745 µM) | 0.25 µg/mL (≈ 0.296 µM)
CCCCc1ccc(-c2ncc(C(=O)N[C@@H](CCN)C(=O)N(C)[C@@H]3C(=O)N[C@@H](C)C(=O)N[C@H](C(=O)NCC#N)Cc4ccc(O)c(c4)-c4cc3ccc4OCCN)c(C)n2)cc1 [Compound 503] |  |  | 0.002 µg/mL (≈ 0.00236 µM) | 0.031 µg/mL (≈ 0.0366 µM) | 0.13 µg/mL (≈ 0.153 µM)
CCCCCCc1ccc(-c2ncc(C(=O)N[C@@H](CCN)C(=O)N(C)[C@@H]3C(=O)N[C@@H](C)C(=O)N[C@H](C(=O)NCC#N)Cc4ccc(O)c(c4)-c4cc3ccc4OCCN)c(C)n2)cc1 [Compound 504] |  |  | 0.016 µg/mL (≈ 0.0183 µM) | 0.094 µg/mL (≈ 0.107 µM) | 0.25 µg/mL (≈ 0.286 µM)
CCc1ccc(-c2ncc(C(=O)N[C@@H](CCN)C(=O)N(C)[C@@H]3C(=O)N[C@@H](C)C(=O)N[C@H](C(=O)NCC#N)Cc4ccc(O)c(c4)-c4cc3ccc4OCCN)c(C)n2)cc1 [Compound 505] |  |  | 0.016 µg/mL (≈ 0.0195 µM) | 0.25 µg/mL (≈ 0.305 µM) | 2 µg/mL (≈ 2.44 µM)
